We go through one molecule from BindingDB's records for patent US10376513 (Incyte Holdings Corporation, 2019).

For the assay, the target named is T1, Phosphatidylinositol 4,5-bisphosphate 3-kinase catalytic subunit delta isoform (Homo sapiens, UniProt O00329).
T1 sequence (O00329 whole entry): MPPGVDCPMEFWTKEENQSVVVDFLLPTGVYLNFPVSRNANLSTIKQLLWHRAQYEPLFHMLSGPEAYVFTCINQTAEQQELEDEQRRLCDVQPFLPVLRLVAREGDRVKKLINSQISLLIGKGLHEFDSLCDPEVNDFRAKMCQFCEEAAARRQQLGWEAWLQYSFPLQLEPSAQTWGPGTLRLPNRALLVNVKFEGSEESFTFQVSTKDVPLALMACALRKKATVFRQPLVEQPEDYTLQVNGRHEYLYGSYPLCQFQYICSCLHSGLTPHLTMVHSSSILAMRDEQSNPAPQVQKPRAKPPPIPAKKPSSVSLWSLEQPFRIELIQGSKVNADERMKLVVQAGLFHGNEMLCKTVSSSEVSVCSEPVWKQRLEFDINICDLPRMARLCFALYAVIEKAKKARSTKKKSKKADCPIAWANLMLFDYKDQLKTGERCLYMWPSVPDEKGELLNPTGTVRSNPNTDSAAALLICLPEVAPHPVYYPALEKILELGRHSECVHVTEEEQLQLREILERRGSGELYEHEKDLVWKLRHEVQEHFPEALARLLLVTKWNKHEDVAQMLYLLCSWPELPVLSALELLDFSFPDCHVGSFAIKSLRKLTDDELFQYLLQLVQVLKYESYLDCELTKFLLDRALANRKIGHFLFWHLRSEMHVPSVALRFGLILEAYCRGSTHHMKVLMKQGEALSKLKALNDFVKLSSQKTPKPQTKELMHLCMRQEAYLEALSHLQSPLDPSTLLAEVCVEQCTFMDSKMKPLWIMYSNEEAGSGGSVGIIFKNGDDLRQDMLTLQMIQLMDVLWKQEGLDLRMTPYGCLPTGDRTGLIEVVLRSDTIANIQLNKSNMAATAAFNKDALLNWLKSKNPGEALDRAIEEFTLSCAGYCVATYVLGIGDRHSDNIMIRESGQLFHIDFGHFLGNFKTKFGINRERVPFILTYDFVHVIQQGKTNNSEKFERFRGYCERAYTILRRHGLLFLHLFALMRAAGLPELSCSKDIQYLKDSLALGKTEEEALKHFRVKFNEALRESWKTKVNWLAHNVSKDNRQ
As to the kind of experiment: PI3Kdelta Scintillation Proximity A3 Assay. As to the method: [γ-33P]ATP (10 mCi/mL) was purchased from Perkin-Elmer (Waltham, Mass.). […] PI3Kδ (p110δ/p85α) was purchased from Millipore (Bedford, Mass.). ATP, MgCl2, DTT, EDTA, MOPS and CHAPS were purchased from Sigma-Aldrich (St. Louis, Mo.). Wheat Germ Agglutinin (WGA) YSi SPA Scintillation Beads was purchased from GE healthcare life sciences (Piscataway, N.J.).The kinase reaction was conducted in polystyrene 384-well matrix white plate from Thermo Fisher Scientific in a final volume of 25 μL. Inhibitors were first diluted serially in DMSO and added to the plate wells before the addition of other reaction components. The final concentration of DMSO in the assay was 0.5%. The PI3K assays were carried out at room temperature in 20 mM MOPS, pH 6.7, 10 mM MgCl2, 5 mM DTT and CHAPS 0.03%. Reactions were initiated by the addition of ATP, the final reaction mixture consisted of 20 μM PIP2, 20 μM ATP, 0.2 μCi [γ-33P] ATP, 4 nM PI3Kδ. […] 25 mM EDTA, 400 μM ATP. The final concentration of SPA beads was 1.0 mg/mL. After the plate sealing, plates were shaken overnight at room temperature and centrifuged at 1800 rpm for 10 minutes, the radioactivity of the product was determined by scintillation counting on Topcount (Perkin-Elmer). IC50 determination was performed by fitting the curve of percent control activity versus the log of the inhibitor concentration using the GraphPad Prism 3.0 software.

Structures are written as SMILES.

`COc1c(C(C)n2nc(C3C=NNC3)c3c(N)ncnc32)cc(Cl)c(C)c1C1CN(CC#N)C1` (stereo unspecified) [US10376513, Example 126] displayed an IC50 of less than 10 nM.
